Reference: patent US20250215006A1, “TRICYCLIC COMPOUNDS AS INHIBITORS OF WRN” (Incyte Corporation, priority 2023, published 2025)

How the values were obtained:
WRN [1] = target: T1, WRN (Homo sapiens, UniProt Q14191); assay: WRN ATPase activity assay (ADP-Glo); format: biochemical; conditions: 1-hr pre-incubation with enzyme; 100 μM ATP, 25 nM forked dsDNA, 1 nM WRN; geometric mean of at least 2 replicates
T1 construct: A His-tagged construct of WRN (AA S2-S1235) was produced and used for the ATPase assay; His; made in house; host or cells: Sf9 insect cells (baculovirus, pFastBac1)
T1 sequence (Q14191 2-1235): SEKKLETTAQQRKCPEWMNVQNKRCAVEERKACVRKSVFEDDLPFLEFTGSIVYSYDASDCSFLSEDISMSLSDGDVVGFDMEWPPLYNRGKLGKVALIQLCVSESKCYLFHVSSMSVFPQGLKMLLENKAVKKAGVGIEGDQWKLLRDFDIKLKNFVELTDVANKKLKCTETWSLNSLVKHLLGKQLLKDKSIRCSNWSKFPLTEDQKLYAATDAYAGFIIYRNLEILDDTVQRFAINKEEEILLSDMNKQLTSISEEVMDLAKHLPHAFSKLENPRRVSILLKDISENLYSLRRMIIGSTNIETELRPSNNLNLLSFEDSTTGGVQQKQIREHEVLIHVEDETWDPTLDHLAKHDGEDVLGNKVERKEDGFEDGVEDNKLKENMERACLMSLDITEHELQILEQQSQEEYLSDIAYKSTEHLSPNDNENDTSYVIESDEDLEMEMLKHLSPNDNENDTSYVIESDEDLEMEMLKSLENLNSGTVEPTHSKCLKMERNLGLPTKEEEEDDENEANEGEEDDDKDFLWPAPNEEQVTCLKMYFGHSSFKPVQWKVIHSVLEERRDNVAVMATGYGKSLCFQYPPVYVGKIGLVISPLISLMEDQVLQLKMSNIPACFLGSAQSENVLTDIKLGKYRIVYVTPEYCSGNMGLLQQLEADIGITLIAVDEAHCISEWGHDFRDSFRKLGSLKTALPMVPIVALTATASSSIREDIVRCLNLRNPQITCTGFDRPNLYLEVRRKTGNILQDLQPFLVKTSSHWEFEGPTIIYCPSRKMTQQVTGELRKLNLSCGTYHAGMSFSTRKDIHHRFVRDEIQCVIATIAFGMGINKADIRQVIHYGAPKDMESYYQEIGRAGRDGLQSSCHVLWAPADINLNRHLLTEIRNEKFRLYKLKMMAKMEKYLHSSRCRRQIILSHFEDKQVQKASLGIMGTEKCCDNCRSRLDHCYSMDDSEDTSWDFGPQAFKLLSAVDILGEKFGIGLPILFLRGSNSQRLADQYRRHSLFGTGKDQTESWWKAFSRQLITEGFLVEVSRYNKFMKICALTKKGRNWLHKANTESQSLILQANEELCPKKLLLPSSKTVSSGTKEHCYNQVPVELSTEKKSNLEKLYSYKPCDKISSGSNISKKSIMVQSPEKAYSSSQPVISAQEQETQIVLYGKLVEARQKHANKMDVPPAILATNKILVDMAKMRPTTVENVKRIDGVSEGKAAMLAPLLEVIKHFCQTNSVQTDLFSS
Method: Compounds of the Examples were tested for WRN ATPase activity. WRN ATPase activity catalyzes ATP hydrolysis to produce ADP and phosphate. DNA encoding the target protein, 6×HIS-TEV-WRN-517-945, was produced, cloned and transfected as detailed in Example D. The amount of ADP produced was measured using ADP-Glo™ Kinase Assay kit from Promega Corporation in a Greiner white regular volume 384 wells assay plate (Greiner #781075). Data was normalized to a standard curve generated using various ADP concentrations and the corresponding luminescent signal intensities at each concentration. The assay conditions were optimized for enzyme concentration (WRN), substrate concentrations (ATP & dsDNA), and the linearity of the ATPase reaction, in the following assay buffer: 50 mM Tris-HCl, pH-7.5, 2 mM MgCl2, 50 mM NaCl, 1 mM EGTA, 0.01% P-20, 0.05% BSA, and 2 mM DTT prepared with nuclease free water.
A serial dilution (1:3 scheme) of the compounds were prepared in neat DMSO, with 100 nL of the compounds dispensed in the 384 wells assay plate. An 1-hr pre-incubation of the compounds with enzyme was included. A His-tagged construct of WRN (AA S2-S1235) was produced and used for the ATPase assay. Maximum inhibition control wells were set up with the addition of only assay buffer, and no inhibition control wells were set up with neat DMSO without test compounds. The reaction was initiated by addition of 5 μL substrate mix (200 μM ultrapure ATP, and 50 nM dsDNA prepared in assay buffer) and incubated at 25° C. for 35 min. A forked dsDNA oligomer substrate was prepared by annealing equal amounts of oligo GPat-1 ([BHQ2][…]) and oligo GPat-2 ([…][TAM]) and was used as dsDNA substrate for WRN ATPase assay. A typical ATPase reaction consists of 25 nM forked dsDNA, 100 μM ATP, and 1 nM WRN prepared in assay buffer. The WRN ATPase reaction was stopped by the addition of 5 μL of ADP-Glo Reagent from ADP-Glo™ Kinase Assay kit and incubated for 40 min to deplete the unreacted ATP. Afterwards, 5 μL of Kinase Detection Reagent from the ADP-Glo™ Kinase Assay kit was added and incubated for 1 hr for the development of luminescence signal.
Luminesce signals were measured on BMG PHERAstar FSX using luminescence protocol. Data analysis was carried out using Genedata software following % of control normalization. Fitting parameters include dose response IC50, Hill slope (n), maximum inhibition (S∞), and minimum inhibition (S0). The reported IC50 values for compounds in this invention are the geometric means of at least 2 independent replicates.

WRN [2] = target: T1, WRN; assay: WRN Helicase activity assay (fluorescence DNA unwinding); format: biochemical; conditions: 1-hr pre-incubation with enzyme; 100 μM ATP, 25 nM forked dsDNA, 1 nM WRN; geometric mean of at least 2 replicates
Method: Compounds of the examples were tested for WRN helicase activity. DNA encoding the target protein, 6×HIS-TEV-WRN-517-945, was produced, cloned and transfected as detailed in Example D. To determine the inhibitory properties of the compounds, a 384 wells plate-based Helicase assay was set up to measure the extent of DNA unwinding (Helicase) activity of WRN. The WRN Helicase assay was designed to measure increase in fluorescence signal using a fluorescence based, donor-quencher paired forked dsDNA oligomer substrate (custom synthesis from Sigma-Aldrich) prepared by annealing equal amounts of oligo GPat-1 ([BHQ2][…]) and oligo GPat-2 ([…][TAM]). Continuous measurement of fluorescent signal was used to optimize the buffer conditions, concentration of enzyme (WRN), concentration of substrates (ATP & dsDNA), and the linearity of the Helicase reaction. All solutions were prepared in the following assay buffer: 50 mM Tris-HCl, pH-7.5, 2 mM MgCl2, 50 mM NaCl, 1 mM EGTA, 0.01% P-20, 0.05% BSA, and 2 mM DTT prepared with nuclease free water.
A serial dilution (1:3 scheme) of the compounds was prepared in neat DMSO and 100 nL of the compounds was dispensed in the Greiner black low volume (Greiner #784076) 384 wells assay plate. An 1-hr pre-incubation of the compounds with enzyme was included. A His-tagged construct of WRN (AA S2-S1235) was produced and used for the ATPase assay. Maximum inhibition control wells were set up with the addition of only assay buffer, and no inhibition control wells were set up with neat DMSO without test compounds. The reaction was initiated by addition of 5 μL substrate mix (200 μM ultrapure ATP, and 50 nM dsDNA prepared in assay buffer) and incubated at 25° C. for 35 min. A typical Helicase reaction consists of 25 nM forked dsDNA, 100 μM ATP, and 1 nM WRN prepared in assay buffer. The WRN Helicase reaction was quenched by the addition of 5 μL ‘STOP’ solution containing 100 mM EDTA (final EDTA concentration 33.33 mM) prepared in assay buffer. The plates were read on BMG PHERAstar FSX using 540/590 module to measure an increase of fluorescence. Data analysis was carried out using the Genedata software following % of control normalization. Fitting parameters include dose response IC50, Hill slope (n), maximum inhibition (S∞), and minimum inhibition (S0). The reported IC50 values for compounds in this invention are the geometric means of at least 2 independent replicates.

SMILES | IC50 (WRN [1]) | IC50 (WRN [2])
C=CC(=O)Nc1ccccc1-c1c(CC)nc2n(CC(=O)Nc3ccc(F)cc3C)c3ccccc3n2c1=O [Example 9, N-(2-(2-Ethyl-10-(2-((4-fluoro-2-methylphenyl)amino)-2-oxoethyl)-4-oxo-4,10-dihydrobenzo[4,5]imidazo[1,2-a]pyrimidin-3-yl)phenyl)acrylamide] | < 100 nM | < 100 nM
C=CS(=O)(=O)Nc1ccccc1-c1c(CC)c(C#N)c2n(CC(=O)Nc3ccc(C(F)(F)F)cc3)c3ccccc3n2c1=O [Example 24, 2-(4-Cyano-3-ethyl-1-oxo-2-(2-(vinylsulfonamido)phenyl)benzo[4,5]imidazo[1,2-a]pyridin-5(1H)-yl)-N-(4-(trifluoromethyl)phenyl)acetamide] | 100 to 500 nM | 100 to 500 nM
C=CC(=O)Nc1ccccc1-c1c(CC)nc2n(CC(=O)Nc3ccc(C(F)(F)F)cc3)c3ncccc3n2c1=O [Example 20, N-(2-(8-Ethyl-6-oxo-10-(2-oxo-2-((4-(trifluoromethyl)phenyl)amino)ethyl)-6,10-dihydropyrido[2′,3′: 4,5]imidazo[1,2-a]pyrimidin-7-yl)phenyl)acrylamide] | 100 to 500 nM | 100 to 500 nM
C=CC(=O)Nc1ccccc1-c1c(CC)nc2n(CC(=O)Nc3ccc(F)cc3Cl)c3ccccc3n2c1=O [Example 6, N-(2-(10-(2-((2-Chloro-4-fluorophenyl)amino)-2-oxoethyl)-2-ethyl-4-oxo-4,10-dihydrobenzo[4,5]imidazo[1,2-a]pyrimidin-3-yl)phenyl)acrylamide] | < 100 nM | < 100 nM
C=CC(=O)Nc1ccccc1-c1c(CC)nc2n(CC(=O)Nc3ccc(C(F)(F)F)cc3)c3c(n2c1=O)CCCC3 [Example 22, N-(2-(2-ethyl-4-oxo-10-(2-oxo-2-((4-(trifluoromethyl)phenyl)amino)ethyl)-4,6,7,8,9,10-hexahydrobenzo[4,5]imidazo[1,2-a]pyrimidin-3-yl)phenyl)acrylamide] | < 100 nM | < 100 nM
C=CC(=O)Nc1ccccc1-c1c(CC)cc2n(CC(=O)Nc3ccc(C(F)(F)F)cc3)c3ccccc3n2c1=O [Example 26, N-(2-(3-Ethyl-1-oxo-5-(2-oxo-2-((4-(trifluoromethyl)phenyl)amino)ethyl)-1,5-dihydrobenzo[4,5]imidazo[1,2-a]pyridin-2-yl)phenyl)acrylamide] | 100 to 500 nM | < 100 nM
C=CS(=O)(=O)Nc1ccccc1-c1c(CC)nc2n(CC(=O)Nc3ccc(C(F)(F)F)cc3)c3ccccc3n2c1=O [Example 21, 2-(2-Ethyl-4-oxo-3-(2-(vinylsulfonamido)phenyl)benzo[4,5]imidazo[1,2-a]pyrimidin-10(4H)-yl)-N-(4-(trifluoromethyl)phenyl)acetamide] | < 100 nM | < 100 nM
C=CC(=O)Nc1ccccc1-c1c(CC)nc2n(CC(=O)Nc3ccc(C(F)(F)F)cc3)c3ccccc3n2c1=O [Example 3, N-(2-(2-Ethyl-4-oxo-10-(2-oxo-2-((4-(trifluoromethyl)phenyl)amino)ethyl)-4,10-dihydrobenzo[4,5]imidazo[1,2-a]pyrimidin-3-yl)phenyl)acrylamide] | < 100 nM | < 100 nM
C=CC(=O)Nc1ccc(C(=O)NCCOC)cc1-c1c(CC)nc2n(CC(=O)Nc3ccc(F)cc3)c3ccccc3n2c1=O [Example 13, 4-Acrylamido-3-(2-ethyl-10-(2-((4-fluorophenyl)amino)-2-oxoethyl)-4-oxo-4,10-dihydrobenzo[4,5]imidazo[1,2-a]pyrimidin-3-yl)-N-(2-methoxyethyl) benzamide] | 100 to 500 nM | 100 to 500 nM
C=CC(=O)Nc1ccccc1-c1c(CC)nc2n(CC(=O)NC3CCCCC3)c3ccccc3n2c1=O [Example 10, N-(2-(10-(2-(Cyclohexylamino)-2-oxoethyl)-2-ethyl-4-oxo-4,10-dihydrobenzo[4,5]imidazo[1,2-a]pyrimidin-3-yl)phenyl)acrylamide] | 1000 to 5000 nM | 1000 to 5000 nM
C=CC(=O)Nc1ccc(C(=O)OC)cc1-c1c(CC)nc2n(CC(=O)Nc3ccc(F)cc3)c3ccccc3n2c1=O [Example 11, Methyl 4-acrylamido-3-(2-ethyl-10-(2-((4-fluorophenyl)amino)-2-oxoethyl)-4-oxo-4,10-dihydrobenzo[4,5]imidazo[1,2-a]pyrimidin-3-yl)benzoate] | < 100 nM | < 100 nM
C=CS(=O)(=O)Nc1ccccc1-c1c(CC)nc2n(CC(=O)Nc3ccc(C(F)(F)F)cc3)c3c(n2c1=O)CCCC3 [Example 23, 2-(2-Ethyl-4-oxo-3-(2-(vinylsulfonamido)phenyl)-6,7,8,9-tetrahydrobenzo[4,5]imidazo[1,2-a]pyrimidin-10(4H)-yl)-N-(4-(trifluoromethyl)phenyl)acetamide] | < 100 nM | < 100 nM
C=CC(=O)Nc1ccccc1-c1c(CC)nc2n(CC(=O)Nc3ccc(F)cc3)c3ccccc3n2c1=O [Example 1, N-(2-(2-Ethyl-10-(2-((4-fluorophenyl)amino)-2-oxoethyl)-4-oxo-4,10-dihydrobenzo[4,5]imidazo[1,2-a]pyrimidin-3-yl)phenyl)acrylamide] | < 100 nM | < 100 nM
C=CC(=O)Nc1ccccc1-c1c(CC)nc2n(CC(=O)Nc3ccc(F)c(F)c3)c3cc(OC)ccc3n2c1=O [Example 17, N-(2-(10-(2-((3,4-Difluorophenyl)amino)-2-oxoethyl)-2-ethyl-8-methoxy-4-oxo-4,10-dihydrobenzo[4,5]imidazo[1,2-a]pyrimidin-3-yl)phenyl)acrylamide] | 100 to 500 nM | 100 to 500 nM
C=CC(=O)Nc1ccccc1-c1c(CC)nc2n(CC(=O)Nc3ccc(F)c(F)c3)c3ccccc3n2c1=O [Example 8, N-(2-(10-(2-((3,4-Difluorophenyl)amino)-2-oxoethyl)-2-ethyl-4-oxo-4,10-dihydrobenzo[4,5]imidazo[1,2-a]pyrimidin-3-yl)phenyl)acrylamide] | < 100 nM | < 100 nM
C=CC(=O)Nc1ccccc1-c1c(CC)c(C#N)c2n(CC(=O)Nc3ccc(C(F)(F)F)cc3)c3ccccc3n2c1=O [Example 25, N-(2-(4-Cyano-3-ethyl-1-oxo-5-(2-oxo-2-((4-(trifluoromethyl)phenyl)amino)ethyl)-1,5-dihydrobenzo[4,5]imidazo[1,2-a]pyridin-2-yl)phenyl)acrylamide] | 100 to 500 nM | 100 to 500 nM
C=CC(=O)Nc1cc(C#N)ccc1-c1c(CC)nc2n(CC(=O)Nc3ccc(C(F)(F)F)cc3)c3ccccc3n2c1=O [Example 15, N-(5-Cyano-2-(2-ethyl-4-oxo-10-(2-oxo-2-((4-(trifluoromethyl)phenyl)amino)ethyl)-4,10-dihydrobenzo[4,5]imidazo[1,2-a]pyrimidin-3-yl)phenyl)acrylamide] | < 100 nM | < 100 nM
